One data set concerns the target T1, NPY Y2 receptor (Homo sapiens, UniProt P49146).
T1 sequence (P49146 1-381): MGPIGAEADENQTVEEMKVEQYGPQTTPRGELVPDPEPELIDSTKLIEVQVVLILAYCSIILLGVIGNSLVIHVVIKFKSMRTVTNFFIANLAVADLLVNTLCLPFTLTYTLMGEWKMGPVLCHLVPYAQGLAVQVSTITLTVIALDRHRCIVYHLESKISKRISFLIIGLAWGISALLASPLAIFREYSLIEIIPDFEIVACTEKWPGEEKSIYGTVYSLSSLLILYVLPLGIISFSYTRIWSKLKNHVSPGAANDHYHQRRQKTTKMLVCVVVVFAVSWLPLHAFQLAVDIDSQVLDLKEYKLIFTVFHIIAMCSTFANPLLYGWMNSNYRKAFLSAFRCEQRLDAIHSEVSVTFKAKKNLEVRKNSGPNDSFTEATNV
In words: CEREP binding panel, NPY Y2. Here is the method: The selectivity of the compound of formula (A) was further evaluated in a large variety of ion-channels, transporters and receptor-binding assays including the Y1 receptor subtype. These assays were performed by CEREP (Celles L'Evescault, France; www.cere.com<http//www.cerea.com>). Selectivity vs the Y5 receptor subtype was evaluated as described in Bonaventure, P., D. Nepomuceno, C. Mazur, B. Lord, D. A. Rudolph, J. A. Jablonowski, N. I. Carruthers and T. W. Lovenberg, J Pharmacol Exp Ther. 2004, 308, 1130.
The compound of formula (A) was assayed by binding in a panel of 50 receptors, ion channels and transporters assays (CEREP) including adenosine (A1,A2A,A3), adrenergic (α1, α2, β1), angiotensin (AT1), dopamine (D1, D2), bradykinin (B2), cholecystokinin (CCKA), galanin (GAL2), melatonin ML1), muscarinic (M1, M2, M3), neurotensin (NTS), neurokinin (NK2, NK3), NPY (Y1, Y2) opiate (m, k, d), serotonin (5-HT1A, 5-HT1B, 5-HT2A, 5-HT3, 5-HT5A, 5-HT6, 5-HT7), somatostatin, vasopressin (V1a), norepinephrine transporter, dopamine transporter and ion channels (sodium, calcium, potassium and chloride).

The nature of data set [1]: Pharmacokinetic study in rats. Type of data set: in vivo. Conditions: rat, whole blood; for Vd: iv. Here is the method: (§1) The pharmacokinetic, blood-brain barrier penetration and ex vivo receptor occupancy studies were performed as described in Bonaventure, P., D. Nepomuceno, C. Mazur, B. Lord, D. A. Rudolph, J. A. Jablonowski, N. I. Carruthers and T. W. Lovenberg, J Pharmacol Exp Ther. 2004, 308, 1130.
(§2) The compound of formula (A) was formulated in 20% hydroxypropylbetacyclodextrine. Subcutaneous (SC), oral (PO) or intravenous (IV) dosing was followed by blood sampling via cardiac puncture over a time course. Blood samples consisted of 250 μl samples taken from the heart using a 23-gauge needle into 1.5 ml micro-centrifuge tubes. Brains were removed from the animals and bisected down the midsagittal plane. One hemisphere was frozen on dry ice for ex vivo receptor binding autoradiography and the other was homogenized for LC/MS-MS analysis.
All blood samples were deproteinized by 1:4 dilution of the sample with acetonitrile with vigorous mixing. These samples were incubated for 5 minutes, and then centrifuged at 14,000 rpm in a micro-centrifuge for 4 minutes. The supernatant was recovered into auto-sampler vials and diluted 1:1 with sterile water. Samples were analyzed by LC-MS/MS. A Vydac SP C18 2.1×50 mm analytical column was used for separation.
Oral, subcutaneous and intravenous pharmacokinetic parameters of the compound of formula (A) were determined in rats and are listed in Table 2 below.

In data set [2] the target is T2, Y2 receptor binding sites in rat hippocampus (Rattus norvegicus, UniProt Q9ERC0).
T2 construct: from tissue; host or cells: rat brain sections (hippocampus) after in vivo dosing
T2 sequence (Q9ERC0 1-381): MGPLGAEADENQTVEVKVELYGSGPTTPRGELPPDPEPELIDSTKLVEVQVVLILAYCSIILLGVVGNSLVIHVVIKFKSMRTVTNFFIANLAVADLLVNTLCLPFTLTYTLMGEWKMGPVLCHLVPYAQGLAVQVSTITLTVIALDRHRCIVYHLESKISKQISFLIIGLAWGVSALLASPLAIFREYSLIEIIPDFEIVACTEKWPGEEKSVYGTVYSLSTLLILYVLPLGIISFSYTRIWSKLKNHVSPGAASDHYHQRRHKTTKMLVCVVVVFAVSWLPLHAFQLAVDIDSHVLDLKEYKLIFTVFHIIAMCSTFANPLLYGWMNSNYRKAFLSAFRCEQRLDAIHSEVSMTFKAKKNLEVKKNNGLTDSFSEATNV
In words: Ex vivo Y2 receptor occupancy in rats (autoradiography). Here is the method: as §1, §2
Ex vivo receptor binding autoradiography was performed on brain sections. Twenty-micron-thick coronal sections at the level of the […] regions were collected and incubated for 10 min with 100 pM [^125I]PYY in Krebs-Ringer phosphate buffer (KRP) at pH 7.4 supplemented with 0.1% BSA, 0.05% bacitracin, and 1 μM BIBP-3226 for Y1 receptor occlusion. The sections were not washed prior to incubation and were incubated 10 minutes to avoid dissociation. Nonspecific binding was determined using adjacent sections incubated in the presence of 1 μM unlabelled hNPY. At the end of the incubation, sections were washed 4 times (4 minutes each) in ice cold buffer, dipped in deionized water and rapidly dried under a stream of cold air. Sections were exposed to a Fujifilm Imaging Plate (BAS-MS2025) for 12 hours. The Phosphor Imaging Plate was scanned using a Fuji Bio-Imaging Analyzer System (BAS-5000). The digitized computer images generated by the scanner were visualized and quantified using ImageGauge V3.12 software (Fujifilm).

Structures are written as SMILES. Read-outs that look alike come from different tables or passages of the source. Bounds are passed on as bounds.

In turn, `CCN(CC)C(=O)C(c1ccccc1)N1CCN(c2ccc(NC(=O)c3ccccc3-c3cccnc3)cc2F)CC1` (racemic) [Cmpd (A), N-{4-[4-(Diethylcarbamoyl-phenyl-methyl)-piperazin-1-yl]-3-fluoro-phenyl}-2-pyridin-3-yl-benzamide] showed an inhibition at 1 µM at NPY Y2 receptor of 100%. Further, the Vd in data set [1] (read-out: VSS) was determined as 0.73 L/kg. The Vd in data set [1] (read-out: Vz) is 1.07 L/kg. Besides, in data set [1] (IV), the AUC(0-inf) turned out to be 0.708 µM·h, the C0 is 5.33 µM, the clearance came to 42.3 mL/min/kg and the half-life was 17.4 min. Moreover, in data set [1] (PO 10 mg/kg), the AUC(0-inf) is 0.444 µM·h, the maximum concentration (Cmax) is 0.414 µM, the Tmax came out at 30 min and the bioavailability came out at 6%. Moreover, in data set [1] (PO 10 mg/kg), the half-life was 31.8 min. For the same compound, in data set [1] (SC 10 mg/kg), the total exposure AUC(0-inf) was found to be 7.91 µM·h, the Cmax is 4.35 µM, the time to peak (Tmax) was determined as 30 min and the bioavailability is above 100%. This compound gave a half-life in data set [1] (SC 10 mg/kg) of 50 min. Moreover, the “time of maximal receptor binding site occupancy” value in data set [2] (rat hippocampus, SC 10 mg/kg) was around 1 h. This compound also came in with an ED50 in data set [2] (rat hippocampus, SC, t=60 min) of 2 mg/kg. Further, in data set [2] (rat, 10 mg/kg SC, read-out: maximal ex vivo receptor occupancy), the receptor occupancy at 10 mg/kg was around 100%.

One may read the inhibition as the relative decrease from the control value, in per cent. In general, AUC(0-inf) refers to total exposure, with the tail of the curve extrapolated. A low value points to low exposure. In general, clearance refers to a measure of how efficiently the substance is removed, as volume per time. For orientation: half-life means how long it takes for the measured level to halve. A high value points to slow loss. The term Cmax denotes the highest concentration seen after dosing. For orientation: Tmax means the time at which the peak concentration occurs. Broadly, the bioavailability is dose-corrected exposure relative to a reference, in per cent. Higher therefore signals much systemic uptake. For orientation: ED50 means the dose at which the effect has come halfway, by size or by number of responders. A lower ED50 goes with an effect at a small dose.

The record behind these values is patent US8338426B2, “Piperazinyl derivatives useful as modulators of the neuropeptide Y2 receptor” (Janssen Pharmaceutica NV, priority 2007, dated 2012).
